Experimental data as given in patent publication US9211310B2, “Use of a Chinese medicine composition in preparing medicaments for treating secondary prevention of myocardial infarction” (TASLY PHARMACEUTICAL GROUP CO., LTD, priority 2010, dated 2015).

System: patients after acute myocardial infarction
Assay: Angina pectoris score, total and single (frequency/attack times, duration, pain degree, dose of nitroglycerin), same clinical trial
Assay type: in vivo, human
Set-up: total angina pectoris score, Md / total angina pectoris score, Mean: scale not given here
Conditions: for patients with change of dose of nitroglycerin score −6 (%) / distribution of total angina pectoris score: Medium, number of patients / distribution of total angina pectoris score: Medium, percentage of patients / distribution of total angina pectoris score: Mild, number of patients / distribution of total angina pectoris score: Mild, percentage of patients / distribution of total angina pectoris score: Severe, number of patients / distribution of total angina pectoris score: Severe, percentage of patients / patients with dose of nitroglycerin score 0 (%) / patients with dose of nitroglycerin score 1 (%) / patients with dose of nitroglycerin score 2 (%) / patients with dose of nitroglycerin score 4 (%) / patients with dose of nitroglycerin score 6 (%) / total angina pectoris score, Md / total angina pectoris score, Mean / change of total angina pectoris score, Md / change of total angina pectoris score, Mean / patients with change of dose of nitroglycerin score 0 (%) / patients with change of dose of nitroglycerin score 1 (%) / patients with change of dose of nitroglycerin score 2 (%) / patients with change of dose of nitroglycerin score 4 (%) / patients with change of dose of nitroglycerin score 6 (%) / patients with change of dose of nitroglycerin score −1 (%) / patients with change of dose of nitroglycerin score −2 (%) / patients with change of dose of nitroglycerin score −3 (%) / patients with change of dose of nitroglycerin score −4 (%) / patients with change of dose of nitroglycerin score −5 (%): PP; for attack times score, patients (%): month after treatment
Description: In order to better understand the present invention, a multi-center, randomized, double-blind, double-dummy and positive drug controlled trial had been conducted. 3508 patients who were in accordance with the diagnostic standards of AMI for 28 days to 2 years and differentiated as Qi deficiency and blood stagnation syndrome by TCM were studied. 0.5 g Chinese medicine composition prepared by the method of EXAMPLE 1 (Coded as QSYQ) was administrated half an hour after meal, 3 times per day. Aspirine was used as a positive drug. The patients were treated for 1 year and observed for 6 months.
They included the overall survival time, angina pectoris score, TCM symptom score and life quality score, where angina pectoris score, TCM symptom score and life quality score were evaluated at randomization, in 1st, 3rd, 6th, 9th, 12th month after treatment and 18th month after follow-up.
Total angina pectoris score was described on every observation period and the change of observation in comparison with baseline. T-test or Wilcoxon rank sum test were used for inter-group comparison. Grade of total score was evaluated on every observation and Wilcoxon rank sum test was used for inter-group comparison. T-test and Pairing signed rank sum test were used for analyzing the change of total score on every observation between groups in comparison with the baseline.
Single angina pectoris score was depicted on every observation time-point and the change of observation in comparison with baseline. Wilcoxon rank sum test was used for inter-group comparison. Pairing signed rank sum test was used for analyzing the change of total score on every observation between groups in comparison with the baseline.
Total angina pectoris score was described on every observation period and the change of observation in comparison with the baseline. T-test or Wilcoxon rank sum test were used for inter-group comparison. Grade of total score was evaluated on every observation and Wilcoxon rank sum test was used for inter-group comparison. T-test and Pairing signed rank sum test were used for analyzing the change of total score on every observation between groups in comparison with the baseline.
Single angina pectoris score was described on every observation time-point and the change of observation in comparison with baseline. Wilcoxon rank sum test was used for inter-group comparison. Pairing signed rank sum test was used for analyzing the change of total score on every observation between groups in comparison with the baseline.

[1] = 6 months after treatment-baseline
[2] = 9 months after treatment-baseline
[3] = 12 months after treatment-baseline

SMILES: CC(=O)Oc1ccccc1C(=O)O [Control group, aspirine]
- patients with change of dose of nitroglycerin score −6 (%) (3 months after treatment-baseline): (0.68%)
- distribution of total angina pectoris score: Medium, number of patients (6 months after treatment): 278
- distribution of total angina pectoris score: Medium, percentage of patients (6 months after treatment): (19.08%)
- distribution of total angina pectoris score: Mild, number of patients (6 months after treatment): 1172
- distribution of total angina pectoris score: Mild, percentage of patients (6 months after treatment): (80.44%)
- distribution of total angina pectoris score: Severe, number of patients (6 months after treatment): 7
- distribution of total angina pectoris score: Severe, percentage of patients (6 months after treatment): (0.48%)
- patients with dose of nitroglycerin score 0 (%) (6 months after treatment): (67.13%)
- patients with dose of nitroglycerin score 1 (%) (6 months after treatment): (1.03%)
- patients with dose of nitroglycerin score 2 (%) (6 months after treatment): (27.85%)
- patients with dose of nitroglycerin score 4 (%) (6 months after treatment): (2.75%)
- patients with dose of nitroglycerin score 6 (%) (6 months after treatment): (1.24%)
- total angina pectoris score, Md (6 months after treatment): 5.00
- total angina pectoris score, Mean (6 months after treatment): 4.54
- change of total angina pectoris score, Md [1]: −1.00
- change of total angina pectoris score, Mean [1]: −2.58
- patients with change of dose of nitroglycerin score 0 (%) [1]: (69.47%)
- patients with change of dose of nitroglycerin score 1 (%) [1]: (0.48%)
- patients with change of dose of nitroglycerin score 2 (%) [1]: (4.14%)
- patients with change of dose of nitroglycerin score 4 (%) [1]: (0.28%)
- patients with change of dose of nitroglycerin score 6 (%) [1]: (0.28%)
- patients with change of dose of nitroglycerin score −1 (%) [1]: (0.28%)
- patients with change of dose of nitroglycerin score −2 (%) [1]: (19.43%)
- patients with change of dose of nitroglycerin score −3 (%) [1]: (0.00%)
- patients with change of dose of nitroglycerin score −4 (%) [1]: (4.41%)
- patients with change of dose of nitroglycerin score −5 (%) [1]: (0.21%)
- patients with change of dose of nitroglycerin score −6 (%) [1]: (1.03%)
- distribution of total angina pectoris score: Medium, number of patients (9 months after treatment): 233
- distribution of total angina pectoris score: Medium, percentage of patients (9 months after treatment): (16.15%)
- distribution of total angina pectoris score: Mild, number of patients (9 months after treatment): 1207
- distribution of total angina pectoris score: Mild, percentage of patients (9 months after treatment): (83.65%)
- distribution of total angina pectoris score: Severe, number of patients (9 months after treatment): 3
- distribution of total angina pectoris score: Severe, percentage of patients (9 months after treatment): (0.21%)
- patients with dose of nitroglycerin score 0 (%) (9 months after treatment): (68.96%)
- patients with dose of nitroglycerin score 1 (%) (9 months after treatment): (1.25%)
- patients with dose of nitroglycerin score 2 (%) (9 months after treatment): (27.43%)
- patients with dose of nitroglycerin score 4 (%) (9 months after treatment): (1.39%)
- patients with dose of nitroglycerin score 6 (%) (9 months after treatment): (0.97%)
- total angina pectoris score, Md (9 months after treatment): 5.00
- total angina pectoris score, Mean (9 months after treatment): 4.10
- change of total angina pectoris score, Md [2]: −2.00
- change of total angina pectoris score, Mean [2]: −3.02
- patients with change of dose of nitroglycerin score 0 (%) [2]: (66.50%)
- patients with change of dose of nitroglycerin score 1 (%) [2]: (0.42%)
- patients with change of dose of nitroglycerin score 2 (%) [2]: (4.18%)
- patients with change of dose of nitroglycerin score 4 (%) [2]: (0.28%)
- patients with change of dose of nitroglycerin score 6 (%) [2]: (0.28%)
- patients with change of dose of nitroglycerin score −1 (%) [2]: (0.56%)
- patients with change of dose of nitroglycerin score −2 (%) [2]: (21.38%)
- patients with change of dose of nitroglycerin score −3 (%) [2]: (0.14%)
- patients with change of dose of nitroglycerin score −4 (%) [2]: (4.67%)
- patients with change of dose of nitroglycerin score −5 (%) [2]: (0.21%)
- patients with change of dose of nitroglycerin score −6 (%) [2]: (1.39%)
- distribution of total angina pectoris score: Medium, number of patients (12 months after treatment): 171
- distribution of total angina pectoris score: Medium, percentage of patients (12 months after treatment): (11.94%)
- distribution of total angina pectoris score: Mild, number of patients (12 months after treatment): 1259
- distribution of total angina pectoris score: Mild, percentage of patients (12 months after treatment): (87.92%)
- distribution of total angina pectoris score: Severe, number of patients (12 months after treatment): 2
- distribution of total angina pectoris score: Severe, percentage of patients (12 months after treatment): (0.14%)
- patients with dose of nitroglycerin score 0 (%) (12 months after treatment): (74.81%)
- patients with dose of nitroglycerin score 1 (%) (12 months after treatment): (1.33%)
- patients with dose of nitroglycerin score 2 (%) (12 months after treatment): (22.18%)
- patients with dose of nitroglycerin score 4 (%) (12 months after treatment): (0.91%)
- patients with dose of nitroglycerin score 6 (%) (12 months after treatment): (0.77%)
- total angina pectoris score, Md (12 months after treatment): 0.00
- total angina pectoris score, Mean (12 months after treatment): 3.38
- change of total angina pectoris score, Md [3]: −3.00
- change of total angina pectoris score, Mean [3]: −3.71
- patients with change of dose of nitroglycerin score 0 (%) [3]: (64.63%)
- patients with change of dose of nitroglycerin score 1 (%) [3]: (0.63%)
- patients with change of dose of nitroglycerin score 2 (%) [3]: (2.88%)
- patients with change of dose of nitroglycerin score 4 (%) [3]: (0.07%)
- patients with change of dose of nitroglycerin score 6 (%) [3]: (0.28%)
- patients with change of dose of nitroglycerin score −1 (%) [3]: (0.63%)
- patients with change of dose of nitroglycerin score −2 (%) [3]: (23.37%)
- patients with change of dose of nitroglycerin score −3 (%) [3]: (0.07%)
- patients with change of dose of nitroglycerin score −4 (%) [3]: (5.47%)
- patients with change of dose of nitroglycerin score −5 (%) [3]: (0.07%)
- patients with change of dose of nitroglycerin score −6 (%) [3]: (1.89%)
- distribution of total angina pectoris score: Medium, number of patients (Baseline): 539
- distribution of total angina pectoris score: Medium, percentage of patients (Baseline): (36.01%)
- distribution of total angina pectoris score: Mild, number of patients (Baseline): 917
- distribution of total angina pectoris score: Mild, percentage of patients (Baseline): (61.26%)
- distribution of total angina pectoris score: Severe, number of patients (Baseline): 41
- distribution of total angina pectoris score: Severe, percentage of patients (Baseline): (2.74%)
- total angina pectoris score, Md (Baseline): 8.00
- total angina pectoris score, Mean (Baseline): 7.20
- distribution of total angina pectoris score: Medium, number of patients (Follow-up): 192
- distribution of total angina pectoris score: Medium, percentage of patients (Follow-up): (13.64%)
- distribution of total angina pectoris score: Mild, number of patients (Follow-up): 1215
- distribution of total angina pectoris score: Mild, percentage of patients (Follow-up): (86.29%)
- distribution of total angina pectoris score: Severe, number of patients (Follow-up): 1
- distribution of total angina pectoris score: Severe, percentage of patients (Follow-up): (0.07%)
- patients with dose of nitroglycerin score 0 (%) (Follow-up): (74.31%)
- patients with dose of nitroglycerin score 1 (%) (Follow-up): (0.93%)
- patients with dose of nitroglycerin score 2 (%) (Follow-up): (23.13%)
- patients with dose of nitroglycerin score 4 (%) (Follow-up): (1.00%)
- patients with dose of nitroglycerin score 6 (%) (Follow-up): (0.64%)
- total angina pectoris score, Md (Follow-up): 0.00
- total angina pectoris score, Mean (Follow-up): 3.60
- change of total angina pectoris score, Md (Follow-up-baseline): −2.00
- change of total angina pectoris score, Mean (Follow-up-baseline): −3.51
- patients with change of dose of nitroglycerin score 0 (%) (Follow-up-baseline): (64.17%)
- patients with change of dose of nitroglycerin score 1 (%) (Follow-up-baseline): (0.29%)
- patients with change of dose of nitroglycerin score 2 (%) (Follow-up-baseline): (4.00%)
- patients with change of dose of nitroglycerin score 4 (%) (Follow-up-baseline): (0.29%)
- patients with change of dose of nitroglycerin score 6 (%) (Follow-up-baseline): (0.21%)
- patients with change of dose of nitroglycerin score −1 (%) (Follow-up-baseline): (0.43%)
- patients with change of dose of nitroglycerin score −2 (%) (Follow-up-baseline): (22.06%)
- patients with change of dose of nitroglycerin score −3 (%) (Follow-up-baseline): (0.14%)
- patients with change of dose of nitroglycerin score −4 (%) (Follow-up-baseline): (6.42%)
- patients with change of dose of nitroglycerin score −5 (%) (Follow-up-baseline): (0.14%)
- patients with change of dose of nitroglycerin score −6 (%) (Follow-up-baseline): (1.86%)
- attack times score, patients (%) (score 0, FAS): (36.58%)
- attack times score, patients (%) (score 0, PP): (36.33%)
- attack times score, patients (%) (score 1, FAS): (10.72%)
- attack times score, patients (%) (score 1, PP): (11.08%)
- attack times score, patients (%) (score 2, FAS): (46.56%)
- attack times score, patients (%) (score 2, PP): (46.88%)
- attack times score, patients (%) (score 4, FAS): (6.02%)
- attack times score, patients (%) (score 4, PP): (5.57%)
- attack times score, patients (%) (score 6, FAS): (0.11%)
- attack times score, patients (%) (score 6, PP): (0.13%)
